The first experiment concerns the target Procathepsin L (Homo sapiens, UniProt P07711). The experiment in a line: FRET-based enzymatic assay.
Procathepsin L, sequence (P07711 whole entry): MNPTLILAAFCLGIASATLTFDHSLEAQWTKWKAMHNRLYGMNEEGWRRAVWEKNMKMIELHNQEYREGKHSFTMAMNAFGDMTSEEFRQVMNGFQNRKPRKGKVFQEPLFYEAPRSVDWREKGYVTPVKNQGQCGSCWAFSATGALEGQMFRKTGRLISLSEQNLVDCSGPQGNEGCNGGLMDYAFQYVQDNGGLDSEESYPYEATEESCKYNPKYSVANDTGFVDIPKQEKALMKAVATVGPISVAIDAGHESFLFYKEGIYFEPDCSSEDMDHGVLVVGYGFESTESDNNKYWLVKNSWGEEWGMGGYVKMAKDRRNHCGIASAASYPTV
On to `CC(C)C[C@H](NC(=O)OCc1ccccc1)C(=O)N[C@@H](CC1CCNC1=O)C(O)S(=O)(=O)O` (stereo not given in full) [GC376], for which the IC50 (usually the concentration that inhibits the measured activity by half) was determined as 0.00099 µM.

In the case of `CC(OC(C)(C)C)[C@H](NC(=O)OCc1ccccc1)C(=O)N[C@@H](CC1CCCCC1)C(=O)N[C@H](C=O)C[C@@H]1CCNC1=O` (stereo not given in full) [jm5b01461, Compound 45], the IC50 was found to be 0.0012 µM.

In the case of `COc1cccc2[nH]c(C(=O)N[C@@H](CC(C)C)C(=O)N[C@@H](C[C@@H]3CCNC3=O)C(=O)CO)cc12` [WO2005113580-Ex-02], half-maximal inhibition (IC50) was put at 0.146 µM.

A further experiment concerns the target Replicase polyprotein 1ab (Severe acute respiratory syndrome coronavirus 2, UniProt P0DTD1). Kind of experiment: FRET-based enzymatic assay.
In turn, `C[C@H](NC(=O)C(c1cnccn1)N(C(=O)CCl)c1ccc(-c2ccccc2)cc1)c1ccccc1` (stereo not given in full) [Jun9-59-1] registered a half-maximal inhibitory concentration (IC50) of 0.12 µM.

In turn, `C[C@H](NC(=O)[C@@H](c1cnccn1)N(C(=O)CCl)c1ccc(-c2ccccc2)cc1)c1ccccc1` [Jun9-57-3R] registered an IC50 of 0.05 µM.

In the case of `O=C(NC1CCCC1)C(c1cccnc1)N(C(=O)CCl)c1ccc(-c2ccccc2)cc1` (stereo not given) [Jun9-55-1], the concentration for half-maximal inhibition (IC50) is 0.3 µM.

`C[C@H](NC(=O)C(c1cccnc1)N(C(=O)/C=C/CN(C)C)c1ccc(-c2ccccc2)cc1)c1ccccc1` (stereo not given in full) [Jun10-31-4] showed an IC50 above 20 µM.

Compound `CCOC(=O)/C=C/C(=O)N(c1ccc(-c2ccccc2)cc1)C(C(=O)N[C@@H](C)c1ccccc1)c1cccnc1` (stereo not given in full) [Jun9-72-3] displayed an IC50 above 20 µM.

`C[C@H](NC(=O)[C@@H](c1cccnc1)N(C(=O)C(Br)Br)c1ccc(-c2ccccc2)cc1)c1ccc(Br)cc1` [Jun9-89-2R] gave an IC50 of 0.08 µM.

The compound `C[C@H](NC(=O)C(c1cccnc1)N(C(=O)CN=[N+]=[N-])c1ccc(-c2ccccc2)cc1)c1ccccc1` (stereo not given in full) [Jun9-61-1] registered an IC50 above 20 µM.

In turn, `O=C(NC1CCCCC1)C(c1cccnc1)N(C(=O)CCl)c1ccc(-c2ccccc2)cc1` (stereo not given) [Jun9-55-2] came in with a half-inhibitory concentration (IC50) of 0.33 µM.

In turn, `C[C@H](NC(=O)C(c1cccnc1)N(C(=O)C(F)(F)Cl)c1ccc(-c2ccccc2)cc1)c1ccccc1` (stereo not given in full) [Jun9-77-2] had an IC50 above 20 µM.

In the case of `C[C@H](NC(=O)C(c1cccnc1)N(C(=O)C(C)(Cl)Cl)c1ccc(-c2ccccc2)cc1)c1ccccc1` (stereo not given in full) [Jun9-76-4], the IC50 was above 20 µM.

`C=CC(=O)N(c1ccc(-c2ccccc2)cc1)C(C(=O)N[C@@H](C)c1ccccc1)c1cccnc1` (stereo not given in full) [Jun9-51-3] registered an IC50 above 20 µM.

The compound `O=C(NC1CC1)C(c1cccnc1)N(C(=O)CCl)c1ccc(-c2ccccc2)cc1` (stereo not given) [Jun9-57-2] returned an IC50 of 0.22 µM.

In turn, `C[C@H](NC(=O)C(c1cccnc1)N(C(=O)CF)c1ccc(-c2ccccc2)cc1)c1ccccc1` (stereo not given in full) [Jun9-61-4] yielded an IC50 above 20 µM.

The compound `C=CC(=O)N(c1ccc(-c2ccccc2)cc1)C(C(=O)NCc1ccccc1)c1cccnc1` (stereo not given) [Jun10-15-2] returned an IC50 above 20 µM.

In the case of `C[C@H](NC(=O)C(c1cccnc1)N(C(=O)C(Cl)(Cl)Cl)c1ccc(-c2ccccc2)cc1)c1ccccc1` (stereo not given in full) [Jun9-72-4], the IC50 is above 20 µM.

Compound `CCCCC1CCC(OC(=O)N[C@@H](CC(C)C)C(=O)N[C@H](C=O)C[C@@H]2CCNC2=O)CC1` (stereo not given in full) [Advanced SARS-CoV-2 Inhibitor 6e] returned an IC50 of 0.01 µM.

As for `C[C@H](Cl)C(=O)N(c1ccc(-c2ccccc2)cc1)C(C(=O)N[C@@H](C)c1ccccc1)c1cccnc1` (stereo not given in full) [Jun9-77-1], the IC50 was above 20 µM.

(Values after BindingDB's records for doi:10.1021/jacs.1c08060 (The University of Arizona, 2021).)
